# Results published in ChEMBL document CHEMBL4699471, “Design and synthesis of purine connected piperazine derivatives as novel inhibitors of Mycobacterium tuberculosis” (2020).
# System: Mycobacterium tuberculosis
# Experiment: Antimycobacterial activity against Mycobacterium tuberculosis H37Rv assessed as inhibition of bacterial growth by MABA assay
# Type: functional
row,SMILES,MIC [µM]
1,CC[C@@H](CO)NCCN[C@@H](CC)CO [ETHAMBUTOL],7.63
2,CC#CCn1c(N2CCN(C(=O)C3CCC3)CC2)nc2c1c(=O)n(Cc1ccc(F)c(F)c1)c(=O)n2C,49
3,O=C(O)c1cn(C2CC2)c2cc(N3CCNCC3)c(F)cc2c1=O [CIPROFLOXACIN],0.94
4,CC#CCn1c(N2CCN(C(=O)Nc3ccc(C(F)(F)F)cc3)CC2)nc2c1c(=O)n(Cc1ccc(F)c(F)c1)c(=O)n2C,5.08
5,CC#CCn1c(N2CCN(C(=O)C3Cc4ccccc4N3)CC2)nc2c1c(=O)n(Cc1ccc(F)c(F)c1)c(=O)n2C (stereo not drawn),43.6
6,CC#CCn1c(N2CCN(C(=O)c3ccccc3C(F)(F)F)CC2)nc2c1c(=O)n(Cc1ccc(F)c(F)c1)c(=O)n2C,41.6
7,CC#CCn1c(N2CCN(C(=O)C34CC5CC(CC(C5)C3)C4)CC2)nc2c1c(=O)n(Cc1ccc(F)c(F)c1)c(=O)n2C,43.4
8,CC#CCn1c(N2CCN(C(=S)Nc3ccccc3Cl)CC2)nc2c1c(=O)n(Cc1ccc(F)c(F)c1)c(=O)n2C,41.9
9,CC#CCn1c(N2CCN(C(=S)Nc3c(F)cccc3Cl)CC2)nc2c1c(=O)n(Cc1ccc(F)c(F)c1)c(=O)n2C,40.6
10,CC#CCn1c(N2CCN(C(=O)c3cccnc3C(F)(F)F)CC2)nc2c1c(=O)n(Cc1ccc(F)c(F)c1)c(=O)n2C,41.6
11,CC#CCn1c(N2CCN(C(=O)C3CCCCN3C(=O)OC(C)(C)C)CC2)nc2c1c(=O)n(Cc1ccc(F)c(F)c1)c(=O)n2C (stereo not drawn),39.1
12,NNC(=O)c1ccncc1 [ISONIAZID],0.66
13,CC#CCn1c(N2CCN(C(=O)c3cccc4ccccc34)CC2)nc2c1c(=O)n(Cc1ccc(F)c(F)c1)c(=O)n2C,53.3
14,CC#CCn1c(N2CCN(C(=O)Nc3ccc(SC)cc3)CC2)nc2c1c(=O)n(Cc1ccc(F)c(F)c1)c(=O)n2C,10.3
15,CC#CCn1c(N2CCN(C(=O)C3CCC(C(F)(F)F)CC3)CC2)nc2c1c(=O)n(Cc1ccc(F)c(F)c1)c(=O)n2C (stereo not drawn),16.4
16,C=CCNC(=O)N1CCN(c2nc3c(c(=O)n(Cc4ccc(F)c(F)c4)c(=O)n3C)n2CC#CC)CC1,52.4
17,CC#CCn1c(N2CCN(C(=O)c3nccnc3Cl)CC2)nc2c1c(=O)n(Cc1ccc(F)c(F)c1)c(=O)n2C,44

row,SMILES,MIC [µM]
1,CC#CCn1c(N2CCN(C(=O)Nc3cccc(C(F)(F)F)c3)CC2)nc2c1c(=O)n(Cc1ccc(F)c(F)c1)c(=O)n2C,20.3
2,CC#CCn1c(N2CCN(C(=O)c3csc(Br)n3)CC2)nc2c1c(=O)n(Cc1ccc(F)c(F)c1)c(=O)n2C,40.5
3,CC#CCn1c(N2CCN(C(=O)c3c(F)cc(OC)cc3F)CC2)nc2c1c(=O)n(Cc1ccc(F)c(F)c1)c(=O)n2C,41.8
4,CC#CCn1c(N2CCN(C(=O)CCc3ccc(F)cc3)CC2)nc2c1c(=O)n(Cc1ccc(F)c(F)c1)c(=O)n2C,43.2
5,CC#CCn1c(N2CCN(C(=O)c3ccc(C(F)(F)F)cc3)CC2)nc2c1c(=O)n(Cc1ccc(F)c(F)c1)c(=O)n2C,51.5
6,CC#CCn1c(N2CCN(C(=S)Nc3ccc(Cl)cc3)CC2)nc2c1c(=O)n(Cc1ccc(F)c(F)c1)c(=O)n2C,34.5
7,CC#CCn1c(N2CCN(C(=O)c3cccc(F)c3)CC2)nc2c1c(=O)n(Cc1ccc(F)c(F)c1)c(=O)n2C,45.4
8,CC#CCn1c(N2CCN(C(=O)Nc3ccccc3Cl)CC2)nc2c1c(=O)n(Cc1ccc(F)c(F)c1)c(=O)n2C,49.2
9,CC#CCn1c(N2CCN(C(=O)Nc3ccc(Cl)cc3)CC2)nc2c1c(=O)n(Cc1ccc(F)c(F)c1)c(=O)n2C,41
10,CC#CCn1c(N2CCN(C(=S)Nc3cccc(Cl)c3)CC2)nc2c1c(=O)n(Cc1ccc(F)c(F)c1)c(=O)n2C,7.17
11,CC#CCn1c(N2CCN(C(=O)c3sccc3Cl)CC2)nc2c1c(=O)n(Cc1ccc(F)c(F)c1)c(=O)n2C,43.7
12,CC#CCn1c(N2CCN(S(=O)(=O)c3ccccc3)CC2)nc2c1c(=O)n(Cc1ccc(F)c(F)c1)c(=O)n2C,44
13,CC#CCn1c(N2CCN(S(=O)(=O)c3cccc(Cl)c3)CC2)nc2c1c(=O)n(Cc1ccc(F)c(F)c1)c(=O)n2C,12.5
14,CC#CCn1c(N2CCN(C(=O)Cc3ccc(F)cc3)CC2)nc2c1c(=O)n(Cc1ccc(F)c(F)c1)c(=O)n2C,44.3
15,CC#CCn1c(N2CCN(C(=S)Nc3ccccc3Br)CC2)nc2c1c(=O)n(Cc1ccc(F)c(F)c1)c(=O)n2C,39
16,CC#CCn1c(N2CCN(C(=O)COc3ccccc3)CC2)nc2c1c(=O)n(Cc1ccc(F)c(F)c1)c(=O)n2C,44.5
